Active and inactive are the calls of the source.
Columns and labels:
Exodeoxyribonuclease V = biological target: T1, Exodeoxyribonuclease V (Escherichia coli (strain K12), UniProt P04993+P07648+P08394); assay: E. coli RecBCD inhibitors, dose response, counter-screen for AddAB inhibitor project, absorbance, V66 E. coli, mutant T4 phage (AID 492957); format: functional, cell-based, Escherichia coli str. K-12 substr. MG1655
T1 sequence (P04993 whole entry): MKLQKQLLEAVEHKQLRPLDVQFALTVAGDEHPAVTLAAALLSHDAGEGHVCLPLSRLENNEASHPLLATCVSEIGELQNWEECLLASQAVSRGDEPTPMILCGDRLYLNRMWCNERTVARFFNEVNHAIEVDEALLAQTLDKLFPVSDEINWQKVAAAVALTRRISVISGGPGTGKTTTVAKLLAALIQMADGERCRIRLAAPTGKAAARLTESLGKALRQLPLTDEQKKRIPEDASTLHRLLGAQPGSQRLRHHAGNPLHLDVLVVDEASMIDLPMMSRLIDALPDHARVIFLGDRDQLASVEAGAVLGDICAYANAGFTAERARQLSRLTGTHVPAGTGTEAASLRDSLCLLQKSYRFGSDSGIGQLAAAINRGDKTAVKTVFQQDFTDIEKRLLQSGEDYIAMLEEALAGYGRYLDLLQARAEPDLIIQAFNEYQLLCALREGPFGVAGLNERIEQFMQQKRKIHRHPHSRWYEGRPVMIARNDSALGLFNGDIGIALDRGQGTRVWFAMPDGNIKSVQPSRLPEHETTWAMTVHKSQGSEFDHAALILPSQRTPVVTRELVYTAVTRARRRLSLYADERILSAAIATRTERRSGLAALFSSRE
T1 sequence (P07648 whole entry): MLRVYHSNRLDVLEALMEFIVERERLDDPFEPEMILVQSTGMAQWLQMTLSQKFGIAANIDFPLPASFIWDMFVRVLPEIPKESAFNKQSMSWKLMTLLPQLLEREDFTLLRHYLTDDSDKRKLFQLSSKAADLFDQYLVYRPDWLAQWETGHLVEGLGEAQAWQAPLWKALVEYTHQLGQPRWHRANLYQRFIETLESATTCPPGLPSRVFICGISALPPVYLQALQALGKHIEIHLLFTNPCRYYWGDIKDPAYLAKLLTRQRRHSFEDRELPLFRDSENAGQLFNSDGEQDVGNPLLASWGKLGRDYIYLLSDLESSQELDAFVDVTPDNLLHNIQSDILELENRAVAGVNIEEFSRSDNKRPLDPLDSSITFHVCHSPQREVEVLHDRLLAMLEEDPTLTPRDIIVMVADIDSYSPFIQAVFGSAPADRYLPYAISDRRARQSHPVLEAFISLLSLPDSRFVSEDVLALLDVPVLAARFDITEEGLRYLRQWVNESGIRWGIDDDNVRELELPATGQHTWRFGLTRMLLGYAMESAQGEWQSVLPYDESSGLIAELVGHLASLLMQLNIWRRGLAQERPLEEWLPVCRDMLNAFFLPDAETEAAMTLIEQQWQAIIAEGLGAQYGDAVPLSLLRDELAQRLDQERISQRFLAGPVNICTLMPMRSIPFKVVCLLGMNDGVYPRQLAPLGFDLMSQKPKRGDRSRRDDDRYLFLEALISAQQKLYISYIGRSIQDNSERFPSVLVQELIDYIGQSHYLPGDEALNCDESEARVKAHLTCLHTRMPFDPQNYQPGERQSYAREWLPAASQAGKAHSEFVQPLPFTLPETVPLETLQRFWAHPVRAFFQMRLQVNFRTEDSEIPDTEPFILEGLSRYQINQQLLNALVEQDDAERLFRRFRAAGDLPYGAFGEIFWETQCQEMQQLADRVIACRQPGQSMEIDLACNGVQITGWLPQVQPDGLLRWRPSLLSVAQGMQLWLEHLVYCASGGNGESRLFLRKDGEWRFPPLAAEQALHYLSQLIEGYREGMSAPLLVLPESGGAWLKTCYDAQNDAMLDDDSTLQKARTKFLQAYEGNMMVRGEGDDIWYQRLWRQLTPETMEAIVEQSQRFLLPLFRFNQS
T1 sequence (P08394 whole entry): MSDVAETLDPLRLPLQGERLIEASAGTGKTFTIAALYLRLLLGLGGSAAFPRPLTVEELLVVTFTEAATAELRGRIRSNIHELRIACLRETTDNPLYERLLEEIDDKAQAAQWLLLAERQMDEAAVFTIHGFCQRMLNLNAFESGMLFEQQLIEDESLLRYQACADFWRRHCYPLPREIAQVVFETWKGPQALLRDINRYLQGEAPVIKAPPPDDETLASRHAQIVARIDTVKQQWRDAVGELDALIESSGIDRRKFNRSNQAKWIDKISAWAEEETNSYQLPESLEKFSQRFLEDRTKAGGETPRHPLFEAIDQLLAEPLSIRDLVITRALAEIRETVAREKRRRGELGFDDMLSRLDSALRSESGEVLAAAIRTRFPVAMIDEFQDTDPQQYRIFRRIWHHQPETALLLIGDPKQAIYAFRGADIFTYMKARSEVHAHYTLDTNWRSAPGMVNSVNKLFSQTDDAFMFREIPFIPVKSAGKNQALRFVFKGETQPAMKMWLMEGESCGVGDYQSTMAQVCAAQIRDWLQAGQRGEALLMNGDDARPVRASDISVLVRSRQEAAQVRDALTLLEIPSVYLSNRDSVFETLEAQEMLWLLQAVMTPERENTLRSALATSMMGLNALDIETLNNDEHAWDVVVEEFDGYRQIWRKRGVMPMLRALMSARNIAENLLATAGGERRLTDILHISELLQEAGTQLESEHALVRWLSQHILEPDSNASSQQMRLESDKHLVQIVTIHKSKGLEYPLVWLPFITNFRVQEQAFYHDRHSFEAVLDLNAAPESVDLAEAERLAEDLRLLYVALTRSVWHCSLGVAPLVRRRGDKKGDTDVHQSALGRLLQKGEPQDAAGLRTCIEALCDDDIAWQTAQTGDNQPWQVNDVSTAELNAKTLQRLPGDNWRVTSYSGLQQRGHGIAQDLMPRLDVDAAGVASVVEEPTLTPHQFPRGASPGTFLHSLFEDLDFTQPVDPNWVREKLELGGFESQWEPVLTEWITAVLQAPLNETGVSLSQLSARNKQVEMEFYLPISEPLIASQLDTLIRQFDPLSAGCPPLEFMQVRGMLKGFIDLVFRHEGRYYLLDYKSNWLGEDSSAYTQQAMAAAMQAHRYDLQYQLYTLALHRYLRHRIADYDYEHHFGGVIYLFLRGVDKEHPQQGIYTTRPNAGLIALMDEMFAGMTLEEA

[1] = biological target: Glucose-6-phosphate 1-dehydrogenase (Homo sapiens, UniProt P11413); assay: human G6PD enzyme inhibitors, dose response, selectivity assay for P. falciparum G6PD inhibitor project, biochemical, fluorescence (AID 504792); format: functional
[2] = Counterscreen for AddAB inhibitors: absorbance-based bacterial cell-based high throughput dose response assay for inhibitors of bacterial viability. [Related pubchem assays (depositor defined):AID435030, AID449728, AID449731, AID488942, AID488955, AID488956]; format: functional
[3] = biological target: T2, High affinity choline transporter 1 (Homo sapiens, UniProt Q9GZV3); assay: CHT inhibitors, dose response, cell-based, 5-point CRC, membrane potential dye (AID 504840); format: functional
T2 sequence (Q9GZV3 whole entry): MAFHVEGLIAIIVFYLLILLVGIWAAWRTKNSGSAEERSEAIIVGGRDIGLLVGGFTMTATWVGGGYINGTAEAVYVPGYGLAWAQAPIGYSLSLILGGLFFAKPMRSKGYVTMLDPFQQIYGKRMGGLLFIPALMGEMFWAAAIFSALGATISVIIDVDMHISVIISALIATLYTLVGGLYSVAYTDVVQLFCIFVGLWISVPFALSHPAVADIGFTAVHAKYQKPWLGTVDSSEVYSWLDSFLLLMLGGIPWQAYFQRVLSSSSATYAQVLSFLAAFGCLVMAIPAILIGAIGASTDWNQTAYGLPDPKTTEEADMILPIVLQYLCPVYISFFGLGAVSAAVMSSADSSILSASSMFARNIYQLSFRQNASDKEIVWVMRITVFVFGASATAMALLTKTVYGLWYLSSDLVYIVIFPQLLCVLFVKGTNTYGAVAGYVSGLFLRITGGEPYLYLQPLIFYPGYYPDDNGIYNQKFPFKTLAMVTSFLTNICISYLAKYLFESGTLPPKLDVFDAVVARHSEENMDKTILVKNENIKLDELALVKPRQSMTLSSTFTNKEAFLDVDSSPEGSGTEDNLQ

[4] = biological target: Kappa-type opioid receptor (Homo sapiens, UniProt P41145); assay: SAR analysis of small molecule agonists of the kappa opioid receptor via a luminescent beta-arrestin assay - Set 3. [Related pubchem assays (depositor defined):AID1777, AID1785, AID1786, AID1966, AID2133, AID2136, AID2284, AID2500]; format: functional
[5] = A Cell Based Secondary Assay To Explore Cytotoxicity of Compounds that Sensitize Mycobacterium Tuberculosis to Beta-Lactam Antibiotics.; format: functional
[6] = biological target: T3, Dual specificity protein phosphatase 3 (Homo sapiens, UniProt P51452); assay: VHR1 phosphatase inhibitors, primary screen, biochemical, absorbance, uHTS (AID 1654)
[7] = biological target: T3, Dual specificity protein phosphatase 3; assay: VHR1 phosphatase inhibitors, biochemical (AID 1878)
[8] = biological target: T4, Dual specificity protein phosphatase 6 (Rattus norvegicus, UniProt Q64346); assay: MKP-3 phosphatase inhibitors, primary screen, biochemical, rat enzyme, in vitro (AID 425)
T4 sequence (Q64346 whole entry): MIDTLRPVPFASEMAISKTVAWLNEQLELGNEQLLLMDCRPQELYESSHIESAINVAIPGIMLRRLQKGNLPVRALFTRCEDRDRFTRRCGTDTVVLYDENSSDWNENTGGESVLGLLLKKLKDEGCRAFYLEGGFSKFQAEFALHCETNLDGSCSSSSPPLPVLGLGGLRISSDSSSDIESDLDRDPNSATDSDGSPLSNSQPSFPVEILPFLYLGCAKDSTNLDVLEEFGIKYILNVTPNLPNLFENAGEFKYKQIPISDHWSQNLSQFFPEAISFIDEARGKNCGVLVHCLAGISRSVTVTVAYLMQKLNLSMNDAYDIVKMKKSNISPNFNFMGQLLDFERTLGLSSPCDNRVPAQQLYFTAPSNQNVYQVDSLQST

[9] = biological target: T3, Dual specificity protein phosphatase 3; assay: SAR VHR1 absorbance Assay for In Vitro dose response studies. [Related pubchem assays (depositor defined):AID1654, AID1661, AID1878, AID1992, AID2004]
[10] = biological target: T3, Dual specificity protein phosphatase 3; assay: SAR VHR1 Fluorescent Assay for In Vitro dose response studies. [Related pubchem assays (depositor defined):AID1654, AID1661, AID1878, AID1992, AID2004, AID2070, AID2085]; format: functional
[11] = biological target: T5, Tyrosine-protein phosphatase non-receptor type 7 (Homo sapiens, UniProt P35236); assay: redox-dependent HePTP inhibition, mechanism study, biochemical, fluorescence (AID 2068); format: functional
T5 sequence (P35236 whole entry): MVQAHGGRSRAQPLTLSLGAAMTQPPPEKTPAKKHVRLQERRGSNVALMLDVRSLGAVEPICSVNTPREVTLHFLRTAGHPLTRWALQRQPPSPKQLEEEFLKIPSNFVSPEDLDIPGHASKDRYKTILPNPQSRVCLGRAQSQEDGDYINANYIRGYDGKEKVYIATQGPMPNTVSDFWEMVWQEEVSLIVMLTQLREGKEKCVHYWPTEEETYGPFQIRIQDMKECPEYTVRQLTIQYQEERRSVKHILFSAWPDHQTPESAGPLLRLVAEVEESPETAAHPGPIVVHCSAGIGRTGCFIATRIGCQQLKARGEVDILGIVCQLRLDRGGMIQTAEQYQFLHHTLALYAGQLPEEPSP

[12] = biological target: T4, Dual specificity protein phosphatase 6; format: functional
Cytochrome P450 2C9 = Cytochrome P450 2C9 (Homo sapiens, UniProt P11712)
Cytochrome P450 3A4 = Cytochrome P450 3A4 (Homo sapiens, UniProt P08684);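 also: CYP3A4 tested as one member of a cytochrome P450 panel screen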
Keap1/Nrf2 = Keap1/Nrf2 (Homo sapiens, UniProt Q14145); assay: Keap1-Nrf2 protein-protein interaction inhibitors, dose response, biochemical, fluorescence polarization, cherry-picked samples (AID 588683)
Keap1/Nrf2, sequence (Q16236 whole entry): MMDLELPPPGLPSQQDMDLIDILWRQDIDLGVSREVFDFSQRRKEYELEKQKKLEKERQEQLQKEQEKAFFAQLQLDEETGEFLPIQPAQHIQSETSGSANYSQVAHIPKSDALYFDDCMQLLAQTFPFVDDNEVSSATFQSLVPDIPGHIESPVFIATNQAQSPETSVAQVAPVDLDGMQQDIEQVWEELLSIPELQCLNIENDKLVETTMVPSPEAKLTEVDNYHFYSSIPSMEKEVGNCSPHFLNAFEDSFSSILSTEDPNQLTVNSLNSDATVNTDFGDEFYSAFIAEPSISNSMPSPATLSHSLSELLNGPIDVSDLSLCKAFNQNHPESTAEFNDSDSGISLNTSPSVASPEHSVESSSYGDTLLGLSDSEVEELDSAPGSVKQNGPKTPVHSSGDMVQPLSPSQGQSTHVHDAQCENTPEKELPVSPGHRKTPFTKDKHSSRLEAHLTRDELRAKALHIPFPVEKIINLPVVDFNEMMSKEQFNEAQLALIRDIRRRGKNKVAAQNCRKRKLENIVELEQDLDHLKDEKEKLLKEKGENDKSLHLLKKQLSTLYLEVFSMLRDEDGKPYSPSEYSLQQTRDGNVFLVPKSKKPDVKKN
Keap1/Nrf2, sequence (Q14145 whole entry): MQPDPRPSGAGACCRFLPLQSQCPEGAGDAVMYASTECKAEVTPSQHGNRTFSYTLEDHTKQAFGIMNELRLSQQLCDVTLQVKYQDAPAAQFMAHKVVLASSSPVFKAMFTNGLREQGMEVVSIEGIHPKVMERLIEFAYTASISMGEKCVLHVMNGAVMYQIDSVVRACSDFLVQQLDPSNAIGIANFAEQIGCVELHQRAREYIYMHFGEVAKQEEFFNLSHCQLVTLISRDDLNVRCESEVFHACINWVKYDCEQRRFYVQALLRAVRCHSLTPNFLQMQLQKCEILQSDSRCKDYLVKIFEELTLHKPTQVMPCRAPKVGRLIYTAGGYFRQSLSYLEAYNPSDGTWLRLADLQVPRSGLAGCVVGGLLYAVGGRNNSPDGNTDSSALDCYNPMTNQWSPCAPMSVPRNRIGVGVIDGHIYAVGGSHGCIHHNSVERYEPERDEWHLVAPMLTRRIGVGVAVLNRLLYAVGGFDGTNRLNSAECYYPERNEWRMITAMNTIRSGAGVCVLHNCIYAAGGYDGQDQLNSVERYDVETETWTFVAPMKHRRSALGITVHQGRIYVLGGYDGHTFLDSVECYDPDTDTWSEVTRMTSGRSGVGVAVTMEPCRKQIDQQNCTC

T3 sequence (P51452 whole entry): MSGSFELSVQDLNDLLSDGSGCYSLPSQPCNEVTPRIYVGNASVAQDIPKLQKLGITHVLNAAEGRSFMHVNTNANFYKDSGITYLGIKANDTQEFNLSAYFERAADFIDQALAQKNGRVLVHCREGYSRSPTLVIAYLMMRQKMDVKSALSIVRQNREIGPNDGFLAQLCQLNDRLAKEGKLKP
Cytochrome P450 3A4, sequence (P08684 whole entry): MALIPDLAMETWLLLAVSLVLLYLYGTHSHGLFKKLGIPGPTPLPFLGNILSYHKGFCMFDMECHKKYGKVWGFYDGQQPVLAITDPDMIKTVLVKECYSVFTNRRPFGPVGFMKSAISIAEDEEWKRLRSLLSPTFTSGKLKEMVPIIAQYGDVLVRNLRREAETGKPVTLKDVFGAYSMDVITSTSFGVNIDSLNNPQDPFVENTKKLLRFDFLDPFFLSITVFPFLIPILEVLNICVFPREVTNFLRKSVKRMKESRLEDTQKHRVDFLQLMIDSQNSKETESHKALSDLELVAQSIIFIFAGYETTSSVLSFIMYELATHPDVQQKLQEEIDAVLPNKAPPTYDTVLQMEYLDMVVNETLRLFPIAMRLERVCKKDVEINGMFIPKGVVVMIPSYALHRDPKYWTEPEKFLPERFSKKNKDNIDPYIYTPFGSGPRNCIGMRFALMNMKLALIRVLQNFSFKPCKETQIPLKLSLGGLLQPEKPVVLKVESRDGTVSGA
Kappa-type opioid receptor, sequence (P41145 whole entry): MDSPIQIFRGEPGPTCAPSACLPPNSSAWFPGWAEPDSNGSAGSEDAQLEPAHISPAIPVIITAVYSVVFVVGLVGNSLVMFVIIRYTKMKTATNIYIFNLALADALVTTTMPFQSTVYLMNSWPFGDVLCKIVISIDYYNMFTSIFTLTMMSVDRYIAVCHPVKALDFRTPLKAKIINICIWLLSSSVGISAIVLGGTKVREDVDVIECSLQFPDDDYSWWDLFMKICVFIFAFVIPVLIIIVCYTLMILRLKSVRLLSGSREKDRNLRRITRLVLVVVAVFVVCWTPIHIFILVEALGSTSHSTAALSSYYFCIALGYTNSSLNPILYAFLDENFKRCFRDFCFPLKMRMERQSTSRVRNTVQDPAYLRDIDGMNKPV
Glucose-6-phosphate 1-dehydrogenase, sequence (P11413 whole entry): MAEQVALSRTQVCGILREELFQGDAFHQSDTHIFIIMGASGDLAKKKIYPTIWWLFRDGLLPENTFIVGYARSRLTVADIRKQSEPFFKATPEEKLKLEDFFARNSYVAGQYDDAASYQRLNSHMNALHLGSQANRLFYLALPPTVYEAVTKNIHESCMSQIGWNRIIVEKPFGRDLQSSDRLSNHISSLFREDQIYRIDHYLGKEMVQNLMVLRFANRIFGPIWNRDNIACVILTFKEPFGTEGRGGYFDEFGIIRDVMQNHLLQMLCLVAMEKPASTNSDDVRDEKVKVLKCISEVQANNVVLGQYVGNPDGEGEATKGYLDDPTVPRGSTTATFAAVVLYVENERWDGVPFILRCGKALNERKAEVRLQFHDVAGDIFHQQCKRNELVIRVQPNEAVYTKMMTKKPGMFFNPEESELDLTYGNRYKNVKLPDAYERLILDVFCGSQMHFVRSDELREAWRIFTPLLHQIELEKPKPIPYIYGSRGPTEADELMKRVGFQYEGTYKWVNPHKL
Cytochrome P450 2C9, sequence (P11712 whole entry): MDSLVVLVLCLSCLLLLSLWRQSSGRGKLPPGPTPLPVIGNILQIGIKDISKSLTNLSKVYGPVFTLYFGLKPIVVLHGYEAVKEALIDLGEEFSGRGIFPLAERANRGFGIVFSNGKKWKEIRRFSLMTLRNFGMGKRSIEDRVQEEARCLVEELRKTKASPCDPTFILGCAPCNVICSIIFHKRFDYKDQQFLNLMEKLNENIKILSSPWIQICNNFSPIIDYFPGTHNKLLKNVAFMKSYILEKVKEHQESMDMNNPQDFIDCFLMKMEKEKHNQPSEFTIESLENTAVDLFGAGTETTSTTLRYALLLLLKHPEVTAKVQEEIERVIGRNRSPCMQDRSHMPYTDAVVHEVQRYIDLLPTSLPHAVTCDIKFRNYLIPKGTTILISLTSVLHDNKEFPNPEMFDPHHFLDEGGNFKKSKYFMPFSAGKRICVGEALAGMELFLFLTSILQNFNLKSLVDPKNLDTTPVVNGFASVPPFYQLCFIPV

SMILES: COc1c(O)c(O)c2oc(-c3ccccc3)cc(=O)c2c1OC
- IC50 (Exodeoxyribonuclease V): > 119 µM (inactive)
- IC50 [1]: > 80 µM (inactive)
- IC50 [2]: > 119 µM (inactive)

SMILES: COc1ccc(C(=O)NC2CCCCC2)cc1OC1CCN(C(C)C)CC1
- IC50 [3]: 17.4 µM (active)

SMILES: Clc1ccc(CSc2nnc(-c3ccccn3)n2Cc2ccccc2)cc1Cl
- EC50 [4]: 1.24 µM (active)

SMILES: CN1CCN(S(=O)(=O)c2ccc(NC(=O)c3ccc(Br)s3)cc2)CC1
- CC50 [5]: > 40 µM (active)
- IC50 [3]: 16.6 µM (active)

SMILES: Oc1c(Br)cc(/C=N/n2c(S)nnc2-c2ccccc2)c(Br)c1O
- IC50 [6]: < 1.23 µM (inactive)
- IC50 [7]: 2.39 µM (active)
- IC50 [8]: 90.3 µM (active)

SMILES: CC(C)NC(=S)c1cn(CCOc2ccccc2)c2ccccc12
- IC50 [9]: > 100 µM (inactive)
- IC50 [10]: > 100 µM (inactive)
- IC50 [11]: > 100 µM (inactive)
- IC50 [12]: > 100 µM (inactive)

SMILES: CC(=O)N1CCC2(CC1)CCN(C(c1ccccc1)c1ccccc1)CC2
- AC50 (Cytochrome P450 2C9): 39.8 µM (inconclusive)
- AC50 (Cytochrome P450 3A4): inconclusive

SMILES: Cc1cc2c(c(=O)o1)C(c1ccc([N+](=O)[O-])o1)C(C#N)=C(N)O2 (centres undefined)
- IC50 (Exodeoxyribonuclease V): > 119 µM (inactive)
- IC50 [2]: 102 µM (inactive)

SMILES: COc1cccc(Cn2c(=O)c(-c3ccc(Cl)cc3)nc3cnc(N4CCN(C)CC4)nc32)c1
- AC50 (Cytochrome P450 3A4): inconclusive

SMILES: Cc1cc(C)c(C)c(S(=O)(=O)Nc2cccc(S(=O)(=O)Nc3ccccc3C(=O)O)c2)c1C
- AC50 (Keap1/Nrf2): > 52 µM (inactive)

SMILES: Cn1cccc1C(=O)N1CCC2(CC1)CN(c1ccccn1)C2
- AC50 (Cytochrome P450 3A4): inconclusive

SMILES: Clc1ccc(CSc2nnc(-c3ccccn3)n2Cc2cccnc2)cc1Cl
- EC50 [4]: 0.756 µM (active)

SMILES: Cc1cccc(C)c1OCc1cc(C(=O)N(C)Cc2nc3ccccc3[nH]2)no1
- IC50 (Exodeoxyribonuclease V): > 119 µM (inactive)
- IC50 [2]: > 119 µM (inactive)

— ChEMBL document CHEMBL1201862, “PubChem BioAssay data set” (2004)
